According to patent US12011447B2, “Pharmaceutical composition for treating thyroid cancer comprising tyrosine kinase activity inhibitor as active ingredient” (Kyungpook National University Industry-Academic Cooperation …, priority 2017, dated 2024):

Tests used:
Format in all cases: cell-based, human
[1] = test system: NIS promoter; experiment: NIS promoter activity by F-luc2 bioluminescence (BLI) in dual-reporter cells; settings: 8505C-PNIS-PCMV cells
Description: (§1) A pNIS-FL2-TurboFP635-pCMV-Rluc recombinant vector expressing reporter genes driven by dual promoters was constructed by Cosmo Genetech, Ltd. (Republic of Korea) using a pNIS-FL2-TurboFP635 vector and a pcDNA3.1/Hygro(+) vector. Specifically, in order to screen a substance that increases the activity of NIS promoter, Firefly-luciferase2(F-luc2) and TurboFP635 were included downstream (clockwise) of the NIS promoter. In order count cells, CMV promoter and Renilla-luciferase (R-luc) were included upstream (counterclockwise) of the NIS promoter. The pNIS-FL2-TurboFP635 vector was provided from Dr. Abhijit De (ACTREC, India), and the pcDNA3.1/Hygro(+) vector was purchased from invitrogen (USA).
The 8505C cell line was transfected with the pNIS-FL2-TurboFP635-pCMV-Rluc recombinant vector using the Fu-GENE HD solution according to the protocols of the manufacturer (Promega). The ratio of the recombinant vector to the Fu-GENE HD solution was 1:4, and the transfected cells were selected using 600 μg/ml of geneticin (AG Scientific). The selected cell line that stably expresses the dual-reporter gene system is referred to herein as ‘8505C-PNIS-PCMV’ cell line.
To examine transcriptional regulation of the NIS (sodium iodide symporter) promoter, the 8505C-PNIS-PCMV cells were treated with a tyrosine kinase inhibitor (hereinafter referred to as TKI) library for 24 hours. Next, D-luciferin (150 μg/ml) was added to the cells, and the activity of NIS promoter was measured by IVIS Lumina III (Perkin-Elmer, Wellesley, Mass., USA). To normalize the NIS promoter activity to cell number, 10 μg/ml of h-coelenterazine was added to the cells, and the activity of R-luc was measured. The activity of F-luc2 was divided by the R-luc activity. The TKI library used in the experiment was obtained from the Korea Chemical Bank (www.chembank.org) in the Korea Research Institute of Chemical Technology (Republic of Korea). Among the TKI candidates, TKI-0266 was selected, purchased from Chemdiv (USA), dissolved in DMSO, and then stored at −80° C.

[2] = test system: 8505C-PNIS-PCMV cells; experiment: R-luc BLI signal indicating cell viability in dual-reporter cells; settings: FIG. 7B
Description: as §1
(§2) The 8505C cell line was transfected with the pNIS-FL2-TurboFP635-pCMV-Rluc recombinant vector using the Fu-GENE HD solution according to the protocols of the manufacturer (Promega). […]
(§3) To examine transcriptional regulation of the NIS (sodium iodide symporter) promoter, the 8505C-PNIS-PCMV cells were treated with a tyrosine kinase inhibitor (hereinafter referred to as TKI) library for 24 hours. Next, D-luciferin (150 μg/ml) was added to the cells, and the activity of NIS promoter was measured by IVIS Lumina III (Perkin-Elmer, Wellesley, Mass., USA). To normalize the NIS promoter activity to cell number, 10 μg/ml of h-coelenterazine was added to the cells, and the activity of R-luc was measured. […]

[3] = as above; settings: human; 8505C-PNIS-PCMV cells, 24 hours, screening; read-out: BLI signal activity of R-luc (cell viability) compared to vehicle group
Description: as §1, §2, §3

[4] = test system: NIS; experiment: Immunofluorescence microscopy of NIS; settings: anaplastic thyroid cancer cells, 24 hours
Experimental: 8505C cells were seeded in a plate at a density of 2×10^5 cells and treated with the TKI inhibitor TKI-0266. After 24 hours, the cells were fixed with 4% paraformaldehyde for 30 minutes at room temperature and washed three times with PBS for 10 minutes each wash. Next, the cells were treated with PBS containing 0.7% Triton for 10 minutes at room temperature and quenched with PBS containing 50 mM NH4Cl for 10 minutes at room temperature. The cells were washed three times with PBS for 5 minutes each wash, and then blocked with 5% BSA-containing PBS and incubated with anti-NIS primary antibody (diluted at 1:50; Abcam, UK) overnight at 4° C. The next day, the cells were washed three times with PBS for 10 minutes each wash and incubated with Alexa-Fluor 488-conjugated secondary antibody (diluted at 1:300; Thermo Fisher Scientific) 1 hour. After 1 hour, the cells were washed three times with PBS for 10 minutes for each wash, and mounted on a coverslip using a Vecta mounting medium (Vector Laboratories, USA) containing 4′,6-diamidino-2-phenylindole (DAPI). NIS staining was observed by confocal laser microscopy (Zeiss, LSM 5 exciter, Germany).

[5] = test system: 8505C cells; experiment: In vitro 125I uptake assay; settings: anaplastic thyroid cancer cells, 24 hours treatment
Experimental: 8505C cells (1.25×10^5) were seeded and incubated in a 24-well plate for 24 hours, and then treated with TKI-0266 and further incubated for 24 hours. Thereafter, the medium was removed, and the cells were washed with bHBSS (Hank's balanced salt solution containing 0.5% BSA). The cells were incubated with 500 μl of bHBSS, 3.7 kBq carrier-free ^125I (Perkin-Elmer), and 10 μmol/L sodium iodide (specific activity of 740 MBq/mmol) at 37° C. for 30 minutes. Thereafter, the cells were washed twice with cold bHBSS and lysed by adding 500 μL of 2% SDS solution thereto. Radioactivity was measured using a Cobra II gamma-counter (Canberra Packard, Canada). The ^125I uptake values were normalized by comparing the amount of total protein determined by BCA protein assay kit.

[6] = test system: TPO, TSHR, Tg, TTF-1 and Pax-8; experiment: Western blot of thyroid-specific proteins; settings: 8505C-PNIS-PCMV cells
Experimental: 8505C-PNIS-PCMV cells were treated with TKI-0266 and incubated for 24 hours, and then the cell pellet was washed twice with cold phosphate-buffered saline (hereinafter referred to as PBS). An RIPA buffer (Thermo Fisher Scientific, USA) containing a protease/phosphatase cocktail inhibitor kit (Thermo Fisher Scientific) was added to the cell pellet to lyse the cells. The lysed cells were gently vortexed three times at a time interval, and centrifuged at 13000xg at 4° C. to isolate a soluble protein. The isolated protein was quantified using a BCA protein assay kit (Thermo Fisher Scientific).
Equal amounts of proteins were separated by 10% SDS-PAGE (sodium dodecyl sulfate-polyacrylamide gel electrophoresis), and then the proteins were transferred to PVDF membranes (Millipore, USA). The PVDF membrane was blocked with 3% BSA (bovine serum albumin) in TBS containing Tween-20 (TBS-T) for 1 hour, and incubated with primary antibodies in 0.5% BSA overnight at 4° C. The next day, the PVDF membrane was incubated with HRP-conjugated secondary antibodies at room temperature for 1 hour, and washed three times with TBS-T. The protein bands were visualized using ECL detection reagent (GE Healthcare Life Sciences, Italy) and the Fusion FX chemiluminescence analyzer system (Vilber lourmat, France). […]

Cc1cc2c(N(C)C3CCCCC3)ncnc2s1 [TKI-0266]
concentration showing the highest F-luc2 activity [1]: 12.5 µM | BLI signal activity of F-luc2 (NIS promoter activity), increase ([1]; 24 hours, screening): 3.19 fold | BLI signal of F-luc2 as treatment concentration increased ([1]; FIG. 7A): increased | activity of NIS promoter (normalized by cell viability) as treatment concentration increased ([1]; FIG. 8): increased | BLI signal activity of R-luc, vehicle group vs treated group [2]: did not significantly differ | viability at 24 h [3]: ~75% | expression of endogenous NIS (immunofluorescence) [4]: robust | iodine uptake compared to vehicle group [5]: significantly increased | expression of TPO, TSHR, Tg, TTF-1 and Pax8 proteins [6]: increased | expression of Tg, TPO, Pax8, TSHR, NIS and TTF-1 as treatment concentration increased ([6]; FIG. 12): increased
